{"source": "patent US20180103638A1", "about": "“SOIL TREATMENT” (PeroxyChem LLC, priority 2016, published 2018)", "key": {"[1]": {"tested_on": "Meloidogyne incognita and Meloidogyne hapla", "format": "in vivo", "description": "(§1) Test method: A peracetic acid stock solution containing 5% PAA and 22% H2O2 (VigorOx® from PeroxyChem, LLC) was used for methods that specified 1750 ppm PAA. A peracetic acid stock solution containing 15% PAA and 10% H2O2 (VigorOx SP-15) was used for methods that specified 3525 ppm PAA. A stock solution of formaldehyde (37% in 10-15% methanol) was used to prepare a 1% aqueous solution of formaldehyde (with about 0.3% methanol).\n(§2) Solutions were applied as the soil drench with an application volume of 12 kL/ha. The Test Medium was: pasteurized 50:50 Loamy sand or pasteurized sand. The efficacy of PAA was evaluated in three different Greenhouse Test Assays: 1) the Tomato Root-knot Galling Index Assay using the nematode species Meloidogyne incognita and Meloidogyne hapla; 2) the Root-knot Nematode Egg Hatch Assay using the nematode species Meloidogyne incognita and Meloidogyne hapla; and 3) assay of levels of soil bacteria using Bacillus mycoides."}, "[2]": {"tested_on": "Meloidogyne incognita and Meloidogyne hapla", "assay": "Root-knot Nematode Egg Hatch Assay (soil drench)", "format": "in vivo", "conditions": "for % Egg Hatching: Example 3, 1 ml/cm^2, sand-loam soil, relative to distilled water control (100)", "description": "as §1, §2\nThe Root-knot Nematode Egg Hatch Assay was carried out essentially as follows. Eggs were collected from roots of infected tomato plants. To release the eggs, the egg masses were placed in a solution of sodium hypochlorite and manually shaken. The solution was centrifuged and the eggs washed with distilled water. Eggs were kept in the dark until needed for the experiments and used in the same day of collection. The experiments were performed in pots filled with pasteurized soil inoculated with about several thousands of individual eggs and then drenched with each treatment solution and controls. The treated soils were covered and incubated for the time periods indicated below. Following the incubation period, the soils were transferred to collect hatched J2 (second stage juveniles). The collected material was observed under the microscope and the number of J2 counted.\nSeedlings were inoculated and cultured in pasteurized Pemberton soil for 14 days. Seedlings were then treated with either formaldehyde, 1750 ppm PAA or 3525 ppm PAA for 13 days. Nematode eggs were extracted from infected roots and their ability to hatch was evaluated.\nTest method: A peracetic acid stock solution containing 15% PAA and 10% H2O2 (VigorOx SP-15) was used for methods that specified 3750, 5000, 7500, 10000 ppm PAA. Capryleth-9 carboxylic acid (C9CA) was used at concentrations of 5000 and 10000 ppm. A stock solution of formaldehyde (37% in 10-15% methanol) was used to prepare a 1% aqueous solution of formaldehyde. The final methanol concentration was about 0.3%.\nSolutions were applied as a soil drench with an application volume of 12 kL/ha. The Test Medium was pasteurized Pemberton loamy soil, sand or pasteurized sand. The efficacy of PAA was evaluated with the Root-Knot Nematode Egg Hatch Assay using the nematode species Meloidogyne incognita and Meloidogyne hapla.\nSeedlings were inoculated and cultured for 22 days and then treated for 21 days with either PAA alone at various concentrations, C9CA alone at various concentrations, or a combination of PAA and C9CA. Nematode eggs were extracted from infected roots and their ability to hatch was evaluated.\nTest method: A peracetic acid stock solution containing 15% PAA and 10% H2O2 (VigorOx SP-15) was used for methods that specified 3500 and 20,000 ppm PAA. Capryleth-9 carboxylic acid (C9CA) was used at concentrations of 250 and 10000 ppm.\nSolutions were applied as a soil drench with an application volume of 1 ml/cm^2. The Test Medium was pasteurized sand-loam soil. The efficacy of PAA was evaluated with the Root-knot Nematode Egg Hatch Assay using the nematode species Meloidogyne incognita and Meloidogyne hapla.\nThe viability of the root-knot nematodes eggs used for each set of experiments in this example was also evaluated. Eggs were incubated with the different solutions in glass dishes in the dark at 25° C. They were observed daily under the microscope to confirm that the eggs were viable and able to hatch in water after 18 hr/24 hr of incubation."}, "Bacillus mycoides": {"tested_on": "Bacillus mycoides", "format": "cell-based", "conditions": "treated four days, soil", "description": "as §1, §2\nSoil was inoculated with Bacillus mycoides, incubated for five days and then treated with formaldehyde or […] for four days. Bacteria were collected from soil and their levels were evaluated based on colony forming units."}, "[3]": {"tested_on": "Aspergillus niger ATCC 16404", "assay": "Fungicidal assay in soil", "format": "cell-based", "procedure": "Test method: A peracetic acid stock solution containing 15% PAA and 10% H2O2 (VigorOx SP-15) was used for methods that specified 3500 and 20,000 ppm PAA. Capryleth-9 carboxylic acid (C9CA) was used at concentrations of 5000 and 30,000 ppm.\nSolutions were applied as a soil drench with an application volume of 1.5 ml/cm^2. The Test Medium was pasteurized Pemberton soil. The spore inoculum was Aspergillus niger ATCC 16404. The fungicidal activity of the compositions was evaluated as follows: Soil was pasteurized to remove background microbial content. The soil was the filled into test cells. Aspergillus niger ATCC 16404 was grown on Potato Dextrose Agar (PDA) plates for 5 days at 35° C. A culture for test was prepared by washing a plate with Butterfield's buffer, grinding in a sterile tissue grinder, and filtering through a cell filter to remove hyphae and debris. The suspension was diluted 1:100 in Butterfield's buffer and was added to the soil as the inoculum. The inoculum was enumerated on Petrifilm APC to determine the titer. In order to analyze antimicrobial efficacy following the treatments, soil was scooped from the cell and weighed into a sterile plastic cup. Sterile deionized water was added to the cup using a serological pipette. The cups were then capped, shaken to suspend soil, and vortexed at maximum speed using the lab vortex. The samples were allowed to settle for several seconds, and then 2 mL of fluid was removed from the tube. One ml of the removed fluid was diluted in 9 mL Butterfield's buffer. The remaining removed fluid was plated onto Petrifilm Petrifilm YM. The diluted sample was further serially diluted and plated to 10^−3 on YM. The plates were all incubated at 35±2° C. for 3 to 4 days and colonies were counted."}, "[4]": {"tested_on": "Bacillus subtilis ATCC 19659", "assay": "Sporicidal assay in soil", "format": "cell-based", "conditions": "3525 ppm PAA; 1 hour, 2 and 7 days treatment", "procedure": "Test method: A peracetic acid stock solution containing 15% PAA and 10% H2O2 (VigorOx SP-15) was used for methods that specified 3525 ppm PAA. Deionized water was used as a control.\nSolutions were applied as the soil drench with an application volume of 1.5 ml/cm^2. The Test Medium was pasteurized Pemberton soil. The spore inoculum was Bacillus subtilis ATCC 19659. Spores were counted as follows: Soil was pasteurized to remove background microbial content. The soil was distributed into test cells. Concentrated Bacillus subtilis ATCC 19659 spore suspension was diluted in Butterfield's buffer and used as the inoculum in this test. For titer determination, the inoculum was diluted in Butterfield's buffer and plated on Petrifilm APC. In order to test for antimicrobial efficacy following treatments, soil was scooped from the cell and measured into a sterile plastic centrifuge tube. Deionized water was then added to each soil sample. The tubes were then capped, shaken to suspend soil, and vortexed at maximum speed using the lab vortex. The samples were allowed to settle for several seconds, and then 2 mL of fluid was removed from the tube. One ml of the removed sample was diluted in 9 mL Butterfield's buffer. The remainder of the removed sample was plated onto Petrifilm APC. […] The plates were all incubated at 30±2° C. for 2-5 days and then colonies on the plates were counted."}}, "note": "Entries after “also recorded” stand apart in the source; their conditions may differ. Read-outs that look alike come from different tables or passages of the source.", "data": [{"compound": "C=O", "note": "[Formaldehyde, formaldehyde, reference compound]", "values": [{"measurement": "Root-knot Galling Index", "setting": "[1]; in vivo", "value": 2}, {"measurement": "% Reduction of J2 Population", "setting": "[2]; in vivo", "value": 60, "unit": "%"}, {"measurement": "% Reduction of J2 population", "setting": "[2]; in vivo", "value": 78, "unit": "%"}, {"measurement": "% Reduction in population (CFU's)", "setting": "Bacillus mycoides; at 1%", "value": 42.5, "unit": "%"}]}, {"compound": "CC(=O)OO", "note": "[PAA, peracetic acid]", "values": [{"measurement": "Root-knot Galling Index", "setting": "[1]; 1750 ppm PAA, soil drench 12 kL/ha, treated 27 days, scale 0=no galling to 10=severe galling", "value": "only a modest reduction"}, {"measurement": "% Reduction of J2 population", "setting": "[2]; Example 1, 1750 ppm PAA, 12 kL/ha, treated 13 days, Pemberton soil", "value": "did not reduce"}, {"measurement": "% Reduction of J2 population", "setting": "[2]; Example 1, 3525 ppm PAA, 12 kL/ha, treated 13 days, Pemberton soil", "value": 51, "unit": "%"}, {"measurement": "% Reduction of J2 Population", "setting": "[2]; Example 2, 5000 ppm PAA, 12 kL/ha, 21 days after treatment", "value": 20, "unit": "%"}, {"measurement": "% Reduction of J2 Population", "setting": "[2]; Example 2, 10000 ppm PAA, 12 kL/ha, 21 days after treatment", "value": 28, "unit": "%"}, {"measurement": "% Egg Hatching", "setting": "[2]; 20000 ppm PAA", "value": 53, "unit": "%"}, {"measurement": "Log10 CFU", "setting": "[3]; 3500 ppm PAA, 1 hour", "value": 3.2, "unit": "Log10 CFU"}, {"measurement": "Log10 CFU", "setting": "[3]; 3500 ppm PAA, 24 hours", "value": 0.0, "unit": "Log10 CFU"}, {"measurement": "Log10 Reduction", "setting": "[3]; 3500 ppm PAA, 24 hours", "value": "completely eliminated; also recorded: Total kill"}, {"measurement": "elimination of Aspergillus niger", "setting": "[3]; 7000 ppm PAA, one hour of treatment", "value": "complete elimination"}, {"measurement": "Log10 CFU", "setting": "[3]; 7500 ppm PAA, 1 hour", "value": 0.0, "unit": "Log10 CFU"}, {"measurement": "Log10 Reduction", "setting": "[3]; 7500 ppm PAA, 1 hour", "value": "Total kill"}, {"measurement": "Log10 CFU", "setting": "[3]; 7500 ppm PAA, 24 hours", "value": 0.0, "unit": "Log10 CFU"}, {"measurement": "Log10 Reduction", "setting": "[3]; 7500 ppm PAA, 24 hours", "value": "Total kill"}, {"measurement": "% Reduction in population (CFU's)", "setting": "Bacillus mycoides; 1750 ppm PAA", "value": 47.5, "unit": "%"}, {"measurement": "bacterial spores capable of giving rise to viable colonies recovered", "setting": "[4]", "value": "no bacterial spores capable of giving rise to viable colonies were recovered"}]}, {"compound": "Capryleth-9 Carboxylic Acid [C9CA]", "values": [{"measurement": "% Reduction of J2 Population", "setting": "[2]; Example 2, 10000 ppm C9CA, 12 kL/ha, 21 days after treatment", "value": 10, "unit": "%"}, {"measurement": "% Egg Hatching", "setting": "[2]; 250 ppm C9CA", "value": 66, "unit": "%"}]}]}
